Experimental data from article PMC8308585, “Design and Synthesis of Novel Thiazolo[5,4-d]pyrimidine Derivatives with High Affinity for Both the Adenosine A1 and A2A Receptors, and Efficacy in Animal Models of Depression” (Pharmaceuticals, 2021).

Assays:
mice [1] = test: Tail suspension test; type: in vivo; conditions: mouse TST, single dose, mean ± SEM of 10 mice, vehicle 99.0 ± 6.8
Procedure: To execute the tests, mice were divided into groups, each of which consisted of 10 animals. The tests were performed after a single p.o. administration of compound 18 at different dosages (10 mg Kg^−1 and 30 mg Kg^−1). Amitriptyline (15 mg Kg^−1) was used as the reference drug. Compounds were acutely administrated 26 min before the beginning of the experiment. In the FST (Table 4), the duration of immobility was recorded during the last 4 min of the 6 min test.
A decrease in the duration of immobility is indicative of an antidepressant-like effect. […] Accordingly, a similar activity was shown in the tail suspension test (Table 5) where the immobility time was measured in the first 2 min, when animals react to the inescapable stress, and in the last 4 min of the test, when the behavioral despair is established. Immobility was defined as the absence of any limb or body movements, except those caused by respiration. A reduction in the duration of the immobility time is indicative of an antidepressant-like effect.
Male CD-1 albino mice (22–25 g; Envigo, Varese, Italy) were housed in CeSAL (Centro Stabulazione Animali da Laboratorio, University of Florence, Florence, Italy) and used at least one week after their arrival. Animals were housed in 26 cm × 41 cm cages (12 mice each) and fed with a standard laboratory diet and tap water ad libitum. They were kept at 23 ± 1 °C with a 12 h light/dark cycle, light at 7 a.m. […]
A piece of tape was adhered to the upper middle of the tail of each animal, creating a flap with the overlap of tape. […] The duration of the test was 6 min and the immobility time was measured in the first 2 min, when animals react to the inescapable stress, and in the last 4 min of the test, when the behavioral despair is established. […]
Behavioral tests were performed by visual observation by researchers blinded to the treatments. Results were expressed as means ± SEM, variance was analyzed by ANOVA. […] Data were analyzed using the “Origin 8.1” software.

mice [2] = test: Sucrose preference test, LPS-induced anhedonia; type: in vivo, mouse; conditions: for Sucrose Preference (%), 6 h / Sucrose Preference (%), 24 h: LPS 1.25 mg kg^−1 i.p. mice; for Sucrose Preference (%), 6 h: 6 h after LPS, vehicle + LPS 42.3 ± 3.1; for Sucrose Preference (%), 24 h: 24 h after LPS, vehicle + LPS 38.0 ± 5.6
Procedure: Anhedonia, or the inability to experience pleasure, is a common symptom of depression. The mood regulatory role of 18 was studied against anhedonia evaluated in the sucrose preference test in animals treated with lipopolysaccharide (LPS), a model of neuroinflammation-induced depressive-like syndrome. Compound 18 (10 mg kg^−1 and 30 mg kg^−1) was daily p.o administered for five consecutive days. Twenty-four hours after the last 18 treatment, LPS 1.25 mg kg^−1 was intraperitoneally injected. Immediately after LPS injection, mice were placed in cages equipped with two bottles: a bottle of 2% sucrose solution and a bottle of water (unsweetened tap water). The consumption of the 2% sucrose solution was evaluated 6 h and 24 h after LPS injection. Amitriptyline (15 mg kg^−1) was used as the reference drug administered following the same protocol.
Male CD-1 albino mice (22–25 g; Envigo, Varese, Italy) were housed in CeSAL (Centro Stabulazione Animali da Laboratorio, University of Florence, Florence, Italy) and used at least one week after their arrival. Animals were housed in 26 cm × 41 cm cages (12 mice each) and fed with a standard laboratory diet and tap water ad libitum. They were kept at 23 ± 1 °C with a 12 h light/dark cycle, light at 7 a.m. Compound 18 was administered per o.s. whereas amitriptyline was by a s.c. route following the most widely used approach reported in the literature.
Lipopolysaccharide (LPS) from Escherichia coli was purchased from Sigma-Aldrich, (Milan, Italy) freshly dissolved in sterile saline, and injected intraperitoneally (i.p.) at the dose of 1.25 mg kg^−1 [49] after five consecutive days of treatment with compound 18, 1 h after the last administration of the compound. Behavioral tests were performed before 6 h and 24 h after LPS administration.
Mice were placed in cages equipped with a couple of bottles, one containing 2% sucrose solution, the second with water (unsweetened tap water). The consumption of the 2% sucrose solution was evaluated 6 h and 24 h after the beginning of the experiment. The preference index was calculated according to the following formula: preference index = volume consumed sucrose solution/(volume consumed sucrose solution + volume consumed water).
Behavioral tests were performed by visual observation by researchers blinded to the treatments. Results were expressed as means ± SEM, variance was analyzed by ANOVA. A Bonferroni’s significant difference procedure was used as post-hoc comparison. p values of less than 0.05 and 0.01 were considered significant. Data were analyzed using the “Origin 8.1” software.

hA1 AR = molecular target: T1, hA1 AR (Homo sapiens, UniProt P30542); test: Counteraction of NECA-induced decrease of cAMP in CHO cells expressing hA1 AR (GloSensor cAMP assay); type: cell-based; conditions: NECA-stimulated activity in CHO cells expressing hA1 AR, mean ± standard error
T1 construct: expressed in transfected cells; host or cells: CHO cells
T1 sequence (P30542 1-326): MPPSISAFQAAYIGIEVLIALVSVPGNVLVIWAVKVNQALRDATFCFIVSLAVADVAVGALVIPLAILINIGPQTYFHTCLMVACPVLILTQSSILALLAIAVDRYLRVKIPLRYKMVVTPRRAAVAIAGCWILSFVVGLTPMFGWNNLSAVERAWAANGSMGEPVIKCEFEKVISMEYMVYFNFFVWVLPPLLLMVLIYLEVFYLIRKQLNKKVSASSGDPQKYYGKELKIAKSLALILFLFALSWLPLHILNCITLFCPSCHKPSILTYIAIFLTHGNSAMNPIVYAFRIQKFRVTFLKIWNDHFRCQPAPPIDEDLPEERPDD
Procedure: Compound 18 was also tested to evaluate its antagonist behavior at the hA1 AR by assessing its ability to counteract NECA-induced decrease of cAMP accumulation.
The intrinsic activity of understudy compounds was evaluated through the GloSensor cAMP assay, as described previously. Briefly, cells stably expressing the hA1, hA2A, and hA2B ARs and the biosensor were incubated for 2 h at rt in equilibration medium containing 3% v/v GloSensor cAMP reagent stock solution, 10% FBS, and 87% CO2 independent medium. Afterward, cells were dispensed in the wells of a 384-well plate and the reference agonist NECA or the compounds, at different concentrations, were tested. The antagonist profile of compounds was evaluated by assessing their ability to counteract NECA-induced increase (A2A and A2B ARs) or decrease (A1 AR) of cAMP accumulation. Responses were expressed as percentage of the maximal relative luminescence units (RLU).
Binding data and concentration–response curves were fitted by a nonlinear regression with the Prism program (GraphPAD Prism 7 Software, San Diego, CA, USA). Each concentration was tested 3–5 times in duplicate and the Ki or IC50 (the concentration of antagonists that produces 50% inhibition of the agonist effect) values are given as the mean ± standard error (S.E.).

[3] = 10 mg kg^−1 p.o. daily for 5 days
[4] = 30 mg kg^−1 p.o. daily for 5 days

Nc1nc(-c2ccco2)nc2sc(Cc3ccccc3F)nc12 [compound 18, 2-(2-Fluorobenzyl)-5-(furan-2-yl)thiazolo[5,4-d]pyrimidin-7-amine]
Immobility Time (mice [1]; 10 mg kg^−1 p.o.): 88.9 ± 10.16 s
Immobility Time (mice [1]; 30 mg kg^−1 p.o.): 56.5 ± 6.1 s
Sucrose Preference (%), 6 h (mice [2]; [3]): 48.9 ± 6.7%
Sucrose Preference (%), 24 h (mice [2]; [3]): 39.7 ± 3.7%
Sucrose Preference (%), 6 h (mice [2]; [4]): 67.3 ± 1.6 %
Sucrose Preference (%), 24 h (mice [2]; [4]): 64.9 ± 2.6 %
Anhedonia-like behavior induced by LPS, preference index (in words) (mice [2]; mouse, 30 mg kg^−1 p.o. daily for 5 days): able to revert the anhedonia-like behavior induced by LPS comparably to the effect of amitriptyline
IC50 (hA1 AR): 360 nM
